The source of these data is US20220306989A1, “CELL THERAPY METHODS” (Universität Basel, priority 2019, published 2022).

Numbered stars: 1 amine (or outer) side, 2 acyl side, 3 side chain; on linkers, the order of the positions; unused ones are H or OH. Bridge positions count the residues as written; N and C are the ends. Square brackets hold non-standard residues; d marks the D form. Peptide text beside a SMILES is read from it. I, II: the chains in the order shown. Actinocin(9to1) = Cc1c2oc3c(C)ccc(C(=O)[*:1])c3nc-2c(C(=O)[*:2])c(N)c1=O; NMeV = CN[C@H](C(=O)O)C(C)C; Sar = CNCC(=O)O

The test system of series [1] is NV and CE NK cells. The format is cell-based. The method, then: (§1) Blood samples were obtained from healthy donors after written informed consent. Peripheral blood mononuclear cells were isolated by standard density-gradient centrifugation protocols (Lymphoprep; Fresenius Kabi). NK cells were negatively selected using EasySep negative NK cell isolation kit (Stemcell). Human NK cells were maintained in RPMI-1640 medium (Invitrogen) supplemented with 10% heat-inactivated human AB serum, 50 U/ml penicillin (Invitrogen) and 50 μg/ml streptomycin (Invitrogen) (R10AB). To generate CE NK cells, isolated NK cells were primed in R10AB containing IL-12 (10 ng/ml, R&D systems), IL-15 (1 ng/ml, PeproTech) and IL-18 (50 ng/ml, R&D systems) over-night. The next day cells were washed twice with PBS and maintained in R10AB containing IL-15 (1 ng/ml) until stimulation. Every 2-3 days 50% of the medium was replaced with fresh IL-IS (1 ng/ml). After 7 days cells were stimulated in R10AB containing IL-12 (10 ng/ml), IL-15 (1 ng/ml) and IL-18 (50 ng/ml) or with K562 leukemia targets (effector: target ratio, 5:1) for 6 hours. When indicated, cells were pre-incubated with 2-deoxy-D-glucose (10 mM, Sigma-Aldrich), Actinomycin D (1 and 10 μM, Sigma-Aldrich), Cycloheximide (10 and 100 μg/ml, Sigma-Aldrich), 2,2′-Bipyridyl (1, 10, 50 and 100 μM, Sigma-Aldrich) or 6-aminonicotinamide (50 μM, Sigma-Aldrich) for 30 min and then stimulated in R10AB containing IL-12 (10 ng/ml), IL-1S (1 ng/ml) and IL-18 (50 ng/ml) for 6 hours.
For cell proliferation assays, NK cells were loaded prior to activation with the cell-proliferation dye CFSE (1 μM, Molecular probes, USA) and seeded in 96-well plates. Cells were washed twice and maintained in R10AB with IL-15 (1 ng/ml), when indicated in the presence of inhibitors. A fixable live-dead cell stain (Fixable Viability Dye, eBioscience or Zombie Aqua, Biolegend) was used to exclude dead cells prior to sample acquisition. CFSE dilution was analyzed 65 hours post-stimulation by flow cytometry. Samples were acquired using a BD AccuriC6 or a CytoFLEX flow cytometer (Beckman Coulter). Data were analyzed with Flowjo®_V 10.5 (Tree Star, USA).

Series [2] has as its system NV and CE NK cells. The experiment in a line: Flow cytometry of surface CD71 / CD69 on human NK cells. The series is classed as cell-based. The procedure: as §1, with “When indicated, cells were pre-incubated with 2-deoxy-D-glucose (10 mM, Sigma-Aldrich), Actinomycin D (1 and 10 μM, Sigma-Aldrich), Cycloheximide (10 and 100 μg/ml, Sigma-Aldrich), 2,2′-Bipyridyl (1, 10, 50 and 100 μM, Sigma-Aldrich) or 6-aminonicotinamide (50 μM, Sigma-Aldrich) for 30 min and then stimulated in R10AB containing IL-12 (10 ng/ml), IL-1S (1 ng/ml) and IL-18 (50 ng/ml) for 6 hours.” left out
For surface staining NK cells were stained for 30 min at 4° C. with saturating concentrations of antibodies. […] Data were analyzed with Flowjo®_V10.5 (Tree Star, USA).

Series [3] concerns NV and CE NK cells. Nature of the series: Transferrin uptake assay (Tf-488). The series is classed as cell-based, human. As to conditions: IL-12/IL-18 + 2-DG treated NK cells. The method, then:
as §1, with “When indicated, cells were pre-incubated with 2-deoxy-D-glucose (10 mM, Sigma-Aldrich), Actinomycin D (1 and 10 μM, Sigma-Aldrich), Cycloheximide (10 and 100 μg/ml, Sigma-Aldrich), 2,2′-Bipyridyl (1, 10, 50 and 100 μM, Sigma-Aldrich) or 6-aminonicotinamide (50 μM, Sigma-Aldrich) for 30 min and then stimulated in R10AB containing IL-12 (10 ng/ml), IL-1S (1 ng/ml) and IL-18 (50 ng/ml) for 6 hours.” left out
NK cells were seeded in U-bottom 96-well plates (2×10^5 cells/well). […] Cells were resuspended in FACS buffer and analyzed by flow cytometry. […] Data were analyzed with Flowjo®_V10.5 (Tree Star, USA).

The test system of series [4] is NV and CE NK cells. The experiment in a line: Quantitative real-time PCR of IFNG and TFRC mRNA in NK cells. The format is cell-based, human. The method, then:
(§2) Blood samples were obtained from healthy donors after written informed consent. Peripheral blood mononuclear cells were isolated by standard density-gradient centrifugation protocols (Lymphoprep; Fresenius Kabi). NK cells were negatively selected using EasySep negative NK cell isolation kit (Stemcell). Human NK cells were maintained in RPMI-1640 medium (Invitrogen) supplemented with 10% heat-inactivated human AB serum, 50 U/ml penicillin (Invitrogen) and 50 μg/ml streptomycin (Invitrogen) (R10AB). To generate CE NK cells, isolated NK cells were primed in R10AB containing IL-12 (10 ng/ml, R&D systems), IL-15 (1 ng/ml, PeproTech) and IL-18 (50 ng/ml, R&D systems) over-night. The next day cells were washed twice with PBS and maintained in R10AB containing IL-15 (1 ng/ml) until stimulation. Every 2-3 days 50% of the medium was replaced with fresh IL-IS (1 ng/ml). […]
RNA was isolated from NK cells using Trizol (Thermo Fisher Scientific) and chloroform (Sigma-Aldrich) according to manufacturer's protocol, then purified with RNeasy RNA purification mini kit (QIAGEN, Germany). RNA concentration was determined using the NanoDrop 2000C (Thermo Fisher Scientific). […] Quantitative PCR for IFNG, TFRC and 18S mRNA was done in triplicate using commercially designed primers from Life Technologies (Hs00989291_m1, Hs00951083_m1, Hs03003631_g1). […]

Series [5] relates to NV and CE NK cells. The experiment in a line: IFN-γ measurement in human NK cells (bead-based immunoassay of supernatants). The format is cell-based. As to conditions: IL-12/IL-18 stimulation 6 hours, 2-DG 10 mM pre-incubated 30 min. The method, then: as §2, with “ng/ml). After 7 days cells were stimulated in R10AB containing IL-12 (10 ng/ml), IL-15 (1 ng/ml) and IL-18 (50 ng/ml) or with K562 leukemia targets (effector: target ratio, 5:1) for 6 hours.” for “ng/ml).”
NK cells were seeded in U-bottom 96 well plates (2×10^5 cells/well) using R10AB. […] Cell supernatants were harvested after stimulation and IFN-γ was measured using a human Th1 cytokine bead-based immunoassay (Legendplex, Biolegend) according to manufacturer's protocol.

In series [6] the test system is NV and CE NK cells. Nature of the series: Immunoblot of total CD71, IRP1, IRP2 in human NK cells. The format is cell-based. Conditions: IL-12/IL-18 + ActD 1 and 10 μM or CHX 10 and 100 μg/ml. The procedure: as §1
Protein concentrations were determined by BCA protein assay kit (Thermo Fisher Scientific). Total cell lysates were separated using 4%-15% Mini Protean TGX Gel (Bio-Rad, Hercules Calif., USA), and transferred to nitrocellulose membranes using Trans-Blot Turbo Transfer (Bio-Rad, Hercules Calif., USA). […] Blots were stained with appropriate secondary antibodies and the odyssey imaging system (LICOR, Lincoln Nebr., USA) was used for visualization, and the ImageJ software (1.48v) for quantification.
(In general: Immunoblotting shows a protein as a band on a membrane.)

Regarding `NC(=O)c1ccc(N)nc1` [6AN, 6-aminonicotinamide], the “expansion / proliferation of cytokine-stimulated NK cells (CFSE dilution)” value in series [1] (IL-12/IL-18 + 6AN 50 μM, NV and CE NK cells) is given as “prevented expansion of cytokine-stimulated NK cells”.

On to `c1ccc(-c2ccccn2)nc1` [BIP, 2,2′-bipyridyl], for which the cell viability result in series [1] is listed as “minimal effects on cell viability”. Moreover, the “NK cell proliferation (CFSE dilution)” value in series [1] (IL-12/IL-18 + BIP 1, 10 and 50 μM, NV and CE NK cells, 65 hours post-stimulation) is listed as “inhibited NK cell proliferation in a dose-dependent manner”. The “NK cell activation as assessed by CD69 expression” value in series [2] (IL-12/IL-18 + BIP 100 μM) is listed as “no effect on NK cell activation”.

For the compound `O=CC[C@@H](O)[C@H](O)[C@H](O)CO` [2-DG, 2-deoxy-d-glucose], the “transferrin uptake (Tf-488)” value in series [3] is recorded as “reduced transferrin uptake”. The “Cell surface expression of CD71” value in series [2] (IL-12/IL-18 + 2-DG, NV and CE NK cells) is “followed the same pattern”. In addition, in series [4] (IL-12/IL-18 + 2-DG), the “TFRC mRNA abundance” value was “similarly reduced”. The “IFNG mRNA abundance” value in series [4] (IL-12/IL-18 stimulation 6 hours, 2-DG 10 mM pre-incubated 30 min) is “similarly reduced”. In addition, the IFN-γ secretion result in series [5] is recorded as “similarly reduced”.

Turning to `Cc1c2oc3c(C)ccc(C(=O)N[C@@H]4C(=O)N[C@H](C(C)C)C(=O)N5CCC[C@H]5C(=O)N(C)CC(=O)N(C)[C@@H](C(C)C)C(=O)O[C@@H]4C)c3nc-2c(C(=O)N[C@@H]2C(=O)N[C@H](C(C)C)C(=O)N3CCC[C@H]3C(=O)N(C)CC(=O)N(C)[C@@H](C(C)C)C(=O)O[C@@H]2C)c(N)c1=O` [Actinomcyin D, Actinomycin D] (I: T[dV]P[Sar][NMeV] / II: T[dV]P[Sar][NMeV]; ester I:1-I:C, II:1-II:C; linker I:N-II:N via Actinocin(9to1)), the “stimulation-induced upregulation of CD71 (total CD71, Western blot)” value in series [6] is reported as “entirely prevented stimulation-induced upregulation of CD71”; in series [6] (listed as actinomycin), “prevented stimulation-induced upregulation of CD71”.

As for `C[C@@H]1C[C@@H]([C@H](O)CC2CC(=O)NC(=O)C2)C(=O)[C@@H](C)C1` [cycloheximide], the “stimulation-induced upregulation of CD71 (total CD71, Western blot)” value in series [6] is reported as “entirely prevented stimulation-induced upregulation of CD71”.
